According to US20130171141A1, “COMBINATION OF HDAC INHIBITORS WITH THROMBOCYTOPENIA DRUGS” (NOVARTIS AG, priority 2010, published 2013):

How the values were obtained:
murine platelet lifespan = assay: Platelet clearance analysis (biotinylated platelet lifespan) in HDACi-treated mice; settings: for decrease in labelled (biotinylated) platelets in peripheral blood over time: IV NHS-biotin, seven days, 10 mg/kg panobinostat IP or 1 mg/kg romidepsin IP daily, compared to vehicle
Procedure: Mice were twice injected intravenously (IV), one hour apart, with 600 μg NHS-biotin in phospho-buffered saline (PBS) and 10% dimethyl sulphoxide (DMSO). At various time points peripheral blood was isolated from the tail, and 1 μl blood was washed twice in PBS and 10 mM EDTA. Platelets were stained with phycoerythrin-conjugated rat anti-CD41 and allophycocyanin-conjugated streptavidin (APC-A) for 30 minutes on ice. Samples were washed again and incubated with 0.125 μg/ml thiazole orange, which has increased uptake in high RNA-containing platelets, staining younger, reticulated platelet fraction, for 90 minutes. Flow cytometry was then performed on an LSR flow cytometer. By plotting the number of biotinylated platelets against time, an estimate of the life span was obtained by linear extrapolation, while the number of thiazole orange-positive, non-biotinylated platelets provided an estimate of new platelet production.
The mice were then treated for seven days with either 10 mg/kg panobinostat IP or 1 mg/kg romidepsin IP daily or vehicle, and the number of biotinylated platelets in peripheral blood was determined. […] ABT-737 is a BH3 mimetic that inhibits Bcl-xL, which causes direct platelet apoptosis. […] Megakaryocytes are the haematopoietic cells responsible for the production of platelets which reside in the bone marrow.

reticulated platelets = assay: Reticulated platelet staining (thiazole orange), new platelet production; type: in vivo, C57BL/6 mice; settings: for absolute number of reticulated (new) platelets: 6 day experiment, thiazole orange, FIG. 2
Procedure: To assess platelet production, C57BL/6 mice were treated with panobinostat, carboplatin and ABT-737, and the RNA-containing platelet fraction (i.e. new platelets) was determined by staining with thiazole orange (FIG. 2). The number of new, reticulated platelets in vehicle-treated mice remained relatively constant over the 6 day time span of the experiment.

thrombocytopenia (TCP) = assay: HDACi-induced thrombocytopenia and co-treatment with TPO-mimetic; type: in vivo; settings: wild-type C57BL/6 mice, 10 mg/kg IP daily, 12-day period
Procedure: To determine whether administration of a TPO-mimetic could ameliorate TCP, some of the panobinostat-treated mice were subjected to co-treatment with 20 μg/kg AMP-4 at day 0 and day 6 (FIG. 3).
To determine whether administration of a TPO-mimetic could ameliorate TCP, some of the romidepsin-treated mice were subjected to co-treatment with 20 μg/kg AMP-4 at day 0 and day 6 (FIG. 4).

platelet count [1] = assay: Compound III with eltrombopag in Hodgkin's lymphoma patient; type: in vivo, human; settings: recommended dosage of compound III, Example 1
Procedure: (§1) A patient having Hodgkin's lymphoma is given the recommend dosage of compound III. […] A patient having Hodgkin's lymphoma is tested for thrombocytopenia. Patient is found to have a low blood cell count or a biomarker for thrombocytopenia. Patient is put on a regimen of compound III together with eltrombopag.

platelet count [2] = assay: Compound III with eltrombopag in multiple myeloma patient; type: in vivo, human; settings: recommended dosage of compound III, Example 3
Procedure: as §1, with “patient having multiple myeloma patient is given” for “patient having Hodgkin's lymphoma is given”

SMILES | decrease in labelled (biotinylated) platelets in peripheral blood over time (murine platelet lifespan; mice, FIG. 1) | absolute number of reticulated (new) platelets (reticulated platelets; C57BL/6 mice) | platelet count versus baseline (reticulated platelets; C57BL/6 mice, throughout the course of the experiment) | thrombocytopenia (TCP) (thrombocytopenia (TCP)) | patient's platelet count (platelet count [1]) | patient's platelet count (platelet count [2]) | platelet life span (murine platelet lifespan; mice, FIG. 1) | absolute reticulated platelet numbers (reticulated platelets; 6 days after the commencement of treatment) | new platelet production (reticulated platelets; first 4 days of treatment) | reduction in platelet number (murine platelet lifespan; biotinylated platelets, two hours following administration) [%]
Cc1[nH]c2ccccc2c1CCNCc1ccc(/C=C/C(=O)NO)cc1 [panobinostat, N-hydroxy-3-[4-[[[2-(2-methyl-1H-indol-3-yl)-ethyl]-amino]methyl]phenyl]-2E-2-propenamide] | remained similar to vehicle-treated mice | dramatic decrease | remained well below baseline levels | sustained TCP | begins to lower | begins to lower |  |  |  | 
C/C=C1\NC(=O)[C@H]2CSSCC/C=C/[C@H](CC(=O)N[C@H](C(C)C)C(=O)N2)OC(=O)[C@H](C(C)C)NC1=O [romidepsin] | remained similar to vehicle-treated mice |  |  | sustained TCP |  |  |  |  |  | 
N.N.O=C([O-])C1(C(=O)[O-])CCC1.[Pt+2] [carboplatin] |  |  |  |  |  |  | did not affect | significantly reduced | did not significantly affect | 
CN(C)CC[C@H](CSc1ccccc1)Nc1ccc(S(=O)(=O)NC(=O)c2ccc(N3CCN(Cc4ccccc4-c4ccc(Cl)cc4)CC3)cc2)cc1[N+](=O)[O-] [ABT-737] | rapidly reduced | substantial increase |  |  |  |  |  |  |  | 50
